Results published in patent publication US12495798B2, “Nicotinamide compound and herbicidal composition comprising compound” (KOREA RESEARCH INSTITUTE OF CHEMICAL TECHNOLOGY, priority 2019, dated 2025).

Columns and labels:
Type in all cases: in vivo
crabgrass [1] = test: Herbicidal activity test against upland field weeds (soil treatment test); parameters: key to Soil treatment herbicidal activity, Crabgrass: 0 (no control); 100 (complete control); conditions: 50 g ai/ha, scale 0 (no control) to 100 (complete control)
In short: (§1)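 Pre-emergence test: seeds or rootstocks were sown in fertilized sandy loam, and the next day the soil surface was sprayed with compound at 50 or 75 g a.i./ha in 50% acetone/0.1% Tween-20. Plants were grown in a greenhouse (30±5 °C, 14/10 h light/dark), then visually scored 0–100 against untreated at 14 d (21 d if needed).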

barnyard grass = test: as above; parameters: key to Soil treatment herbicidal activity, barnyard grass: 0 (no control); 100 (complete control); conditions: 50 g ai/ha, scale 0 (no control) to 100 (complete control)
In short: as §1

quack grass = test: Herbicidal activity test against upland field weeds (foliar treatment test); parameters: key to Foliar treatment herbicidal activity, quack grass: 0 (no control); 100 (complete control); conditions: 50 g ai/ha, scale 0-100
In short: (§2)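 Weeds were raised from seed or rootstocks in horticultural soil in a greenhouse (30±5° C., 14/10 h light/dark), then foliage was hand-sprayed with compound at 50 or 75 g a.i./ha in 50% acetone with 0.1% Tween-20. Control was scored visually 0–100 against untreated plants after 14 days, or 21 if needed.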

crabgrass [2] = test: as above; parameters: key to Foliar treatment herbicidal activity, Crabgrass: 0 (no control); 100 (complete control); conditions: 50 g ai/ha, scale 0-100; for pest or weed control at 50 g/ha: Digitaria sanguinalis
In short: as §2

bindweed [3] = test: Herbicidal activity test against upland field weeds (soil treatment test); parameters: key to Soil treatment herbicidal activity, Bindweed: 0 (no control); 100 (complete control); conditions: 50 g ai/ha, scale 0 (no control) to 100 (complete control)
In short: as §1

velvetleaf = test: Herbicidal activity test against upland field weeds (foliar treatment test); parameters: key to Foliar treatment herbicidal activity, velvet leaf: 0 (no control); 100 (complete control); conditions: 50 g ai/ha; for pest or weed control at 50 g/ha: Abutilon theophrasti, scale 0-100, read-out: Foliar treatment herbicidal activity, velvet leaf; for Foliar treatment herbicidal activity, velvet leaf: scale 0-100
In short: as §2

indian jointvetch = test: Herbicidal activity test against upland field weeds (soil treatment test); parameters: key to Soil treatment herbicidal activity, Indian jointvetch: 0 (no control); 100 (complete control); conditions: 50 g ai/ha, scale 0 (no control) to 100 (complete control)
In short: as §1

bindweed [4] = test: Herbicidal activity test against upland field weeds (foliar treatment test); parameters: key to Foliar treatment herbicidal activity, Bindweed: 0 (no control); 100 (complete control); conditions: 50 g ai/ha, scale 0-100
In short: as §2

soybean = test: Phytotoxicity test for field crops (soil treatment test); parameters: key: 0 (no harm); 9 (complete withered)
Protocol: (§3) Experimental Example 4: Phytotoxicity Test for Field Crops (Soil Treatment Test)
(§4) Soil treatment was performed for sown crops and weeds in a square plastic pot having a surface area of 50 cm^2 filled with sterilized horticultural soil (pH 6.1, organic material 1.0%, clay 21%, silt 17%, sand 52%). As a fertilizer per pot, 0.5 g of horticultural mixed fertilizer (N:P:K=17:21:17) was treated by mixing with soil. Five kinds of crops such as rice, wheat, corn, soybean, and cotton were sown in each pot. One day after sowing, test compound solutions were made by diluting with the diluent (33% acetone, 0.1% Tween-20) so that the final treatment amount of the test compounds was 19˜300 g a.i./ha. The prepared test compound solutions were treated using a spray booth (SB6-016) at a treatment amount of 100 ml per 1 m^2 of treatment area. The treated crops were managed in greenhouse conditions (average temperature 30±5° C., light/dark=14/10 hours). External symptoms and phytotoxicity were visually investigated 10 and 20 days after treatment. In the evaluation of the phytotoxicity for the crop, the grade of 0 (no harm) to 9 (complete withered) was used. The results of Table 10 were obtained by evaluating phytotoxicity value to the untreated control.

wheat = test: as above; parameters: key: 0 (no harm); 9 (complete withered)
Protocol: as §3, §4

corn = test: as above; parameters: key: 0 (no harm); 9 (complete withered)
Protocol: as §3, §4

cotton = test: as above; parameters: key: 0 (no harm); 9 (complete withered)
Protocol: as §3, §4

rice = test: as above; parameters: key: 0 (no harm); 9 (complete withered)
Protocol: as §3, §4

[5] = 50 g ai/ha, Soybean (10 days after treatment)
[6] = 50 g ai/ha, Soybean (20 days after treatment)
[7] = 50 g ai/ha, Wheat (10 days after treatment)
[8] = 50 g ai/ha, Wheat (20 days after treatment)
[9] = 100 g ai/ha, Wheat (10 days after treatment)
[10] = 100 g ai/ha, Wheat (20 days after treatment)
[11] = 50 g ai/ha, Corn (10 days after treatment)
[12] = 50 g ai/ha, Corn (20 days after treatment)
[13] = 100 g ai/ha, Corn (10 days after treatment)
[14] = 100 g ai/ha, Corn (20 days after treatment)
[15] = 50 g ai/ha, Cotton (10 days after treatment)
[16] = 50 g ai/ha, Cotton (20 days after treatment)
[17] = 100 g ai/ha, Cotton (10 days after treatment)
[18] = 100 g ai/ha, Cotton (20 days after treatment)
[19] = 50 g ai/ha, Rice (10 days after treatment)
[20] = 50 g ai/ha, Rice (20 days after treatment)
[21] = 100 g ai/ha, Rice (10 days after treatment)
[22] = 100 g ai/ha, Rice (20 days after treatment)
[23] = 100 g ai/ha, Soybean (10 days after treatment)
[24] = 100 g ai/ha, Soybean (20 days after treatment)

Structure (SMILES)	Soil treatment herbicidal activity, Crabgrass (crabgrass [1])	Soil treatment herbicidal activity, barnyard grass (barnyard grass)	Foliar treatment herbicidal activity, quack grass (quack grass)	pest or weed control at 50 g/ha (crabgrass [2])	pest or weed control at 50 g/ha (velvetleaf)	pest or weed control at 50 g/ha (bindweed [4])	Foliar treatment herbicidal activity, Crabgrass (crabgrass [2])	Foliar treatment herbicidal activity, Bindweed (bindweed [4])	Soil treatment herbicidal activity, Bindweed (bindweed [3])	Soil treatment herbicidal activity, Indian jointvetch (indian jointvetch)	Soil treatment phytotoxicity, Soybean (soybean; [5])	Soil treatment phytotoxicity, Wheat (wheat; [7])	Soil treatment phytotoxicity, Wheat (wheat; [8])	Soil treatment phytotoxicity, Wheat (wheat; [9])	Soil treatment phytotoxicity, Wheat (wheat; [10])	Soil treatment phytotoxicity, Corn (corn; [11])	Soil treatment phytotoxicity, Corn (corn; [12])	Soil treatment phytotoxicity, Corn (corn; [13])	Soil treatment phytotoxicity, Corn (corn; [14])	Soil treatment phytotoxicity, Cotton (cotton; [15])	other results
Cn1nnc(CS(=O)(=O)Cc2nc(C(F)(F)F)ccc2C(=O)Nc2nnnn2C)n1 [Compound No. 2-105, N-(1-methyl-1H-tetrazol-5-yl)-2-((((2-methyl-2H-tetrazol-5-yl)methyl)sulfonyl)methyl)-6-(trifluoromethyl)nicotinamide]	0	0	0	30%	90%	80%															pest or weed control at 50 g/ha (bindweed [3]): 30%; pest or weed control at 50 g/ha (indian jointvetch): 90%
Cn1nnc(CSCc2nc(C(F)(F)F)ccc2C(=O)Nc2nnnn2C)n1 [Compound No. 2-102, N-(1-methyl-1H-tetrazol-5-yl)-2-((((2-methyl-2H-tetrazol-5-yl)methyl)thio)methyl)-6-(trifluoromethyl)nicotinamide]	100		0		80%		100	100													pest or weed control at 50 g/ha (barnyard grass; Echinochloa crus-galli): 98%
CCOC(=O)OC(C)N(C(=O)c1ccc(C(F)(F)F)nc1COCc1nnn(C)n1)c1nnnn1C (centres unmarked) [Compound No. 4-8, ethyl(1-(N-(1-methyl-1H-tetrazol-5-yl)-2-(((2-methyl-2H-tetrazol-5-yl)methoxy)methyl)-6-(trifluoromethyl)nicotinamido)ethyl)carbonate]	100	100	0				98	100	0	100											Foliar treatment herbicidal activity, velvet leaf (velvetleaf): 100
COc1nc(COCc2nc(C(F)(F)F)ccc2C(=O)Nc2nnnn2C)nn1C [Compound No. 2-129, 2-(((5-methoxy-1-methyl-1H-1,2,4-triazol-3-yl)methoxy)methyl)-N-(1-methyl-1H-tetrazol-5-yl)-6-(trifluoromethyl)nicotinamide]	0	0	0	70%	70%	40%				0	0	0	0	0	0	0	0	0	0	0	Soil treatment phytotoxicity, Soybean (soybean; [6]): 0; Soil treatment phytotoxicity, Cotton (cotton; [16]): 0; Soil treatment phytotoxicity, Cotton (cotton; [17]): 1; Soil treatment phytotoxicity, Cotton (cotton; [18]): 5; Soil treatment phytotoxicity, Rice (rice; [19]): 5; Soil treatment phytotoxicity, Rice (rice; [20]): 6; Soil treatment phytotoxicity, Rice (rice; [21]): 5; Soil treatment phytotoxicity, Rice (rice; [22]): 7
COC(=O)OC(C)N(C(=O)c1ccc(C(F)(F)F)nc1COCc1nnn(C)n1)c1nnnn1C (centres unmarked) [Compound No. 4-4, methyl(1-(N-(1-methyl-1H-tetrazol-5-yl)-2-(((2-methyl-2H-tetrazol-5-yl)methoxy)methyl)-6-(trifluoromethyl)nicotinamido)ethyl)carbonate]	0	0	0				98	100	0												Foliar treatment herbicidal activity, velvet leaf (velvetleaf): 100
Cn1nc(COCc2nc(C(F)(F)F)ccc2C(=O)Nc2nnnn2C)nc1Cl [Compound No. 2-135, 2-(((5-chloro-1-methyl-1H-1,2,4-triazol-3-yl)methoxy)methyl)-N-(1-methyl-1H-tetrazol-5-yl)-6-(trifluoromethyl)nicotinamide]	0	0	0	70%	40%	70%				0	0	0	0	0	0	0	0	0	0	1	Soil treatment phytotoxicity, Soybean (soybean; [6]): 0; Soil treatment phytotoxicity, Soybean (soybean; [23]): 2; Soil treatment phytotoxicity, Soybean (soybean; [24]): 3; Soil treatment phytotoxicity, Cotton (cotton; [16]): 3; Soil treatment phytotoxicity, Cotton (cotton; [17]): 1; Soil treatment phytotoxicity, Cotton (cotton; [18]): 4; Soil treatment phytotoxicity, Rice (rice; [19]): 6; Soil treatment phytotoxicity, Rice (rice; [20]): 8; Soil treatment phytotoxicity, Rice (rice; [21]): 7; Soil treatment phytotoxicity, Rice (rice; [22]): 8
Cn1nnnc1NC(=O)c1ccc(C(F)(F)F)nc1OCc1nnnn1C(F)F [Compound No. 1-26, 2-((1-(difluoromethyl)-1H-tetrazol-5-yl)methoxy)-N-(1-methyl-1H-tetrazol-5-yl)-6-(trifluoromethyl)nicotinamide]		100	0	98%	50%	60%			0		0	0	0	0	0	0	0	1	1	1	Soil treatment phytotoxicity, Soybean (soybean; [23]): 0; Soil treatment phytotoxicity, Soybean (soybean; [24]): 4; Soil treatment phytotoxicity, Cotton (cotton; [16]): 0; Soil treatment phytotoxicity, Cotton (cotton; [17]): 1; Soil treatment phytotoxicity, Cotton (cotton; [18]): 1; Soil treatment phytotoxicity, Rice (rice; [19]): 1; Soil treatment phytotoxicity, Rice (rice; [20]): 8; Soil treatment phytotoxicity, Rice (rice; [21]): 3; Soil treatment phytotoxicity, Rice (rice; [22]): 9; pest or weed control at 50 g/ha (indian jointvetch): 70%
